The results in this text go back to patent US11802127B2, “3,4-dihydro-2,7-naphthyridine-1,6(2H,7H)-diones as MEK inhibitors” (Pfizer Inc., priority 2021, dated 2023).

The test system of data set [1] is ERK1/2(Thr202/Tyr204) phosphorylation (MEK-dependent) in A375 cells. The data set is described as follows: Cellular Phospho-p44/42 MAPK (Erk1/2) (Thr202/Tyr204) Assay. It is filed as cell-based. The note with it: Homo sapiens, A-375, 1-hour incubation, pERK1/2 (Thr202/Tyr204) In-Cell Western normalized to GAPDH. Here is the method: Inhibition of ERK1/2(Thr202/Tyr204) phosphorylation was determined by the following cellular assay, which comprises incubating cells with a compound for 1 hour and quantifying pERK signal by In-Cell Western on fixed cells and normalizing to GAPDH signal. A375 cells were obtained from the ATCC and grown in DMEM supplemented with 10% fetal bovine serum, penicillin/streptomycin, Glutamax®, non-essential amino acids, and sodium pyruvate. Cells were plated in 96-well plates at 30,000 cells/well and allowed to attach overnight at 37° C./5% CO2. Cells were treated with compounds prepared as a 10-point, 1:3 dilution series (range: 20 μM-0.05 nM; maximum concentration varied from 20 μM-1 μM), with a final DMSO concentration of 0.5%. Control wells contained either 0.5% DMSO alone (no inhibition control) or 1 μM of a potent control compound (complete inhibition control). After a 1-hour incubation, cells were fixed in 3.7% formaldehyde in dPBS (Dulbecco's phosphate-buffered saline) at room temperature for 20 minutes. Cells were then washed with dPBS and permeabilized in 100% MeOH at room temperature for 10 minutes. Following permeabilization, cells were washed in dPBS and incubated in LI-COR Blocking Buffer (LI-COR Biosciences, Cat #927-40000) for 1 hour or longer. Plates were then incubated with an antibody specific for the MEK-dependent ERK1/2 phosphorylation sites, threonine 202 and tyrosine 204 (Cell Signaling Technologies; Cat #9101), downstream of MEK in the MAP kinase signal transduction pathway, as well as GAPDH (Millipore; Cat #MAB374). pErk1/2 (Thr202/Tyr204) antibody was diluted in LI-COR blocking buffer containing 0.05% Tween-20 at 1:250; GAPDH was diluted at 1:2,500. The plates were incubated overnight at 4° C. After washing with PBS/0.05% Tween-20, the cells were incubated with fluorescently-labeled secondary antibodies (Anti-rabbit-Alexa Flour680, Invitrogen Cat #A21109; Anti-mouse-IRDye800CW, LI-COR Biosciences Cat #926-32210, both at 1:1000 dilution) for 1 hour. Cells were then washed, as above, and analyzed for fluorescence at both 680 and 800 nm wavelengths using the Odyssey CLx Infrared Imaging System (LI-COR Biosciences). Phosphorylated Erk1/2 (Thr202/Tyr204) signal was normalized to GAPDH signal for each well.

The next data set deals with T1, BCRP (hBCRP) (Homo sapiens, UniProt Q9UNQ0).
T1 construct: expressed in transfected cells; host or cells: MDCKII (canine kidney) cells, canine P-gp knockout, transfected with BCRP
T1 sequence (Q9UNQ0 1-655): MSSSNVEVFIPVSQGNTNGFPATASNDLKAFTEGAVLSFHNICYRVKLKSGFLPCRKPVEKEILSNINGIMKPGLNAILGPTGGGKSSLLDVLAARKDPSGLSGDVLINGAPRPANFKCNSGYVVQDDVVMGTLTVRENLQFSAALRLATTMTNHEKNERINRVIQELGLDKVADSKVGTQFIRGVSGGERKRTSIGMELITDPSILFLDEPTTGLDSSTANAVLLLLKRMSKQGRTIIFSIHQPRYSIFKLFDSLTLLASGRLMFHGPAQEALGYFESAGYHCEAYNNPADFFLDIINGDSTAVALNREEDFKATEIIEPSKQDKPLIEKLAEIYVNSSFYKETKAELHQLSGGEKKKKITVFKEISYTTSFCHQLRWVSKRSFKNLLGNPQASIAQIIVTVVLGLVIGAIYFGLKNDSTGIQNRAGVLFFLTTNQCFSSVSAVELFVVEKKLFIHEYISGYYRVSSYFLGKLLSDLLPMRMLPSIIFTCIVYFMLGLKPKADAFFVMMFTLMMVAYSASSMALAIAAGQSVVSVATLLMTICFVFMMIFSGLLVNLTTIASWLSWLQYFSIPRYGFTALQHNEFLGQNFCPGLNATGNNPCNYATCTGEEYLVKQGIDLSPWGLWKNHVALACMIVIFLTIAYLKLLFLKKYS
The data set is described as follows: Efflux ratio in BCRP transfected MDCKII canine P-gp knockout cells. Type of data set: in vitro ADME. The note with it: Papp(B−A)/Papp(A−B), read-out: Efflux ratio MDCKII-hBCRP knock-in,canine pg-P KO. Here is the method:
(§1) BCRP transfected MDCKII canine P-gp knockout cell line was cultured and plated according to manufacturer's recommendations.
(§2) Both positive and negative controls were used to assess functionality of P-gp or BCRP efflux in the assays. Stock solutions for assay controls and the test article were prepared in DMSO for final test concentrations of 10 and 1 μM, respectively. Final organic concentration in the assay was 1%. All dosing solutions contained 10 μM lucifer yellow to monitor LLC-PK1 or MDCKII cell monolayer integrity.
(§3) For the apical to basolateral determination (A to B), 75 μL of the test article in transport buffer were added to the apical side of the individual transwells and 250 μL of basolateral media, without compound or lucifer yellow, were added to each well. For the basolateral to apical determination (B to A), 250 μL of test article in transport buffer were added to each well and 75 μL transport buffer, without compound or lucifer yellow, were added to each transwell. All tests were performed in triplicate, and each compound was tested for both apical to basolateral and basolateral to apical transport. The plates were incubated for 2 hours on a Lab-Line Instruments Titer Orbital Shaker (VWR, West Chester, PA) at 50 rpm and 37° C. with 5% CO2. All culture plates were removed from the incubator and 50 μL of media were removed from the apical and basolateral portion of each well and added to 150 μL of 1 μM labetalol in 2:1 acetonitrile (acetonitrile): H2O, v/v.
(§4) The plates were read using a Molecular Devices (Sunnyvale, CA) Gemini Fluorometer to evaluate the lucifer yellow concentrations at excitation/emission wavelengths of 425/535 nm. These values were accepted when found to be below 2% for apical to basolateral and 5% basolateral to apical flux across the MDR1-transfected LLC-PK1 or BCRP-transfected MDCKII cell monolayers. The plates were sealed and the contents of each well analyzed by LC-MS/MS. The compound concentrations were determined from the ratio of the peak areas of the compound to the internal standard (labetalol) in comparison to the dosing solution.
(§5) The LC-MS/MS system was comprised of an HTS-PAL autosampler (Leap Technologies, Carrboro, NC), an HP1200 HPLC (Agilent, Palo Alto, CA), and a MDS Sciex 4000 Q Trap system (Applied Biosystems, Foster City, CA). […] The total run time, including re-equilibration, for a single injection was 1.2 minutes. Mass spectrometric detection of the analytes was accomplished using the ion spray positive mode. Analyte responses were measured by multiple reaction monitoring (MRM) of transitions unique to each compound (the protonated precursor ion and selected product ions for each test article and m/z 329 to m/z 162 for labetalol, the internal standard).
(§6) An efflux ratio is calculated from the mean apical to basolateral (A−B) Papp data and basolateral to apical (B−A) Papp data: Efflux ratio=Papp(B−A)/Papp(A−B)

Data set [2] is described as follows: MDR1 LLC-PK1 and BCRP MDCKII Permeability Assay: permeability coefficient (Papp). It is filed as in vitro ADME. The note with it: MDCK, test article 1 μM, 37° C. On the procedure:
(§7) Both LLC-PK1 and MDR1 transfected LLC-PK1 cells were cultured and plated according to manufacturer's recommendations with the exception that the passage media contained only 2% fetal bovine serum to extend passage time out to seven days.
as §1, §2, §3, §4, §5

The target in a further data set is T2, P-gp (MDR1) (Homo sapiens, UniProt P08183).
T2 construct: expressed in transfected cells; host or cells: LLC-PK1 (porcine kidney) cells transfected with MDR1
T2 sequence (P08183 whole entry): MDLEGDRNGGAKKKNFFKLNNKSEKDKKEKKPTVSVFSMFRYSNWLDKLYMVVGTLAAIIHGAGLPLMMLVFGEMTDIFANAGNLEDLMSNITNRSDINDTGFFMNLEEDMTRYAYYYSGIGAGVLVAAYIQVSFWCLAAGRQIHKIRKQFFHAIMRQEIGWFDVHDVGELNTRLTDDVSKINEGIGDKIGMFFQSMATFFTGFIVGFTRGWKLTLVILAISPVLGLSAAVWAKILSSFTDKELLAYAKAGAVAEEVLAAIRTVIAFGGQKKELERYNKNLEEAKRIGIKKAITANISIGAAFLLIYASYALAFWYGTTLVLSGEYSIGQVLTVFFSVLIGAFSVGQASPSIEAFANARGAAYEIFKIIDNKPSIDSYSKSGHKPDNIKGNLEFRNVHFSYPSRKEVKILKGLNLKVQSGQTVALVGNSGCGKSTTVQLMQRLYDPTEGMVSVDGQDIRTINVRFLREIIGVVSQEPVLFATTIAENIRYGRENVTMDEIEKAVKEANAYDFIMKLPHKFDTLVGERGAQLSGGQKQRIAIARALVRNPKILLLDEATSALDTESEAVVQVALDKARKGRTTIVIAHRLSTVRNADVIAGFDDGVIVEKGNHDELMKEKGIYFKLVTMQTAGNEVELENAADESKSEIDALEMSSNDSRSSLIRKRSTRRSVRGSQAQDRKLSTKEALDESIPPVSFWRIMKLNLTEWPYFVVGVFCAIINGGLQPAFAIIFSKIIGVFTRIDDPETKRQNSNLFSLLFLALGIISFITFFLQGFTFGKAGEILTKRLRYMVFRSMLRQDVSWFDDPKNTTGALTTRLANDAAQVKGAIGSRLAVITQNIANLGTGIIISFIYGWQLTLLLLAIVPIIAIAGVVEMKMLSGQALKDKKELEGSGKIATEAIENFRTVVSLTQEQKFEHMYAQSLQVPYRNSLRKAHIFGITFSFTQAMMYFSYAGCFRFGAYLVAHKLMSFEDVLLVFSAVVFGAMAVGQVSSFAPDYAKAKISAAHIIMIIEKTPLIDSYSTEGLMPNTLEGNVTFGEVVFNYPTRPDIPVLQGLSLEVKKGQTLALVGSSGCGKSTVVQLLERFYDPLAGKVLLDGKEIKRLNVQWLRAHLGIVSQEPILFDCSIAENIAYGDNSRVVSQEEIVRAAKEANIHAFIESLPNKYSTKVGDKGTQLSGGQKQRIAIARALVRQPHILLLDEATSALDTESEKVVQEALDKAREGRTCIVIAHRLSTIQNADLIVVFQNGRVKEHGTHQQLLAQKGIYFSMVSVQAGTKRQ
The experiment in a line: Efflux ratio in MDR1 transfected LLC-PK1 cells. The note with it: pig, Papp(B−A)/Papp(A−B). Type of data set: in vitro ADME. On the procedure: as §7, §2, §3, §4, §5, §6

Broadly, the IC50 is the midpoint of a concentration-inhibition curve. In general, Papp refers to the rate of passage across a membrane or cell layer, normalised by area and donor concentration. Higher therefore signals ready permeation. For `Cn1c(Nc2ccc(I)cc2F)c2c(cc1=O)CCN(C1CC1)C2=O` [Example 5, 2-cyclopropyl-8-((2-fluoro-4-iodophenyl)amino)-7-methyl-3,4-dihydro-2,7-naphthyridine-1,6(2H,7H)-dione], half-maximal inhibition in data set [1] (IC50) required 0.02 µM. In addition, the figures for the efflux ratio at 2 h, 1 μM at BCRP (hBCRP) and at P-gp (MDR1) were 1 and 1.6, respectively. Moreover, the Papp at 2 h, 1 μM in data set [2] worked out at 27.8 ×10⁻⁶ cm/s.
On the same counts, the results for `Cn1c(Nc2ccc(I)cc2Cl)c2c(cc1=O)CCN(OCCO)C2=O` [Example 9, 8-((2-chloro-4-iodophenyl)amino)-2-(2-hydroxyethoxy)-7-methyl-3,4-dihydro-2,7-naphthyridine-1,6(2H,7H)-dione] are 0.003 µM, 3.2, 7.7 and 27.1 ×10⁻⁶ cm/s.
In the case of `Cn1c(Nc2ccc(Br)cc2Cl)c2c(cc1=O)CCN(OCCO)C2=O` [Example 10, 8-((4-bromo-2-chlorophenyl)amino)-2-(2-hydroxyethoxy)-7-methyl-3,4-dihydro-2,7-naphthyridine-1,6(2H,7H)-dione], in data set [1], the IC50 worked out at 0.058 µM. The efflux ratio at 2 h, 1 μM at BCRP (hBCRP) came out at 6.3; on P-gp (MDR1), 6.7. The Papp at 2 h, 1 μM in data set [2] was found to be 26.5 ×10⁻⁶ cm/s.
The matching figures for `Cn1c(Nc2ccc(C3CC3)cc2F)c2c(cc1=O)CCN(OCCO)C2=O` [Example 15, 8-((4-cyclopropyl-2-fluorophenyl)amino)-2-(2-hydroxyethoxy)-7-methyl-3,4-dihydro-2,7-naphthyridine-1,6(2H,7H)-dione]: 0.017 µM, 2.2, 3.7 and 27.5 ×10⁻⁶ cm/s.
Compound `Cn1c(Nc2ccc(C3CC3)cc2Cl)c2c(cc1=O)CCN(OCCO)C2=O` [Example 19, 8-((2-chloro-4-cyclopropylphenyl)amino)-2-(2-hydroxyethoxy)-7-methyl-3,4-dihydro-2,7-naphthyridine-1,6(2H,7H)-dione] returned an IC50 in data set [1] of 0.029 µM. Besides, the figures for the efflux ratio at 2 h, 1 μM on BCRP (hBCRP) and at P-gp (MDR1) were 1.5 and 3.3, respectively. This compound also yielded a Papp at 2 h, 1 μM in data set [2] of 25.9 ×10⁻⁶ cm/s.
In data set [1], `CSc1ccc(Nc2c3c(cc(=O)n2C)CCN(OCCO)C3=O)c(Cl)c1` [Example 21, 8-((2-chloro-4-(methylthio)phenyl)amino)-2-(2-hydroxyethoxy)-7-methyl-3,4-dihydro-2,7-naphthyridine-1,6(2H,7H)-dione] registered an IC50 of 0.01 µM. Besides, the efflux ratio at 2 h, 1 μM was determined as 3 on BCRP (hBCRP) and 4.2 at P-gp (MDR1). Moreover, the Papp at 2 h, 1 μM in data set [2] came to 28.8 ×10⁻⁶ cm/s.
The matching figures for `CCc1ccc(Nc2c3c(cc(=O)n2C)CCN(OCCO)C3=O)c(Cl)c1` [Example 23, 8-((2-chloro-4-ethylphenyl)amino)-2-(2-hydroxyethoxy)-7-methyl-3,4-dihydro-2,7-naphthyridine-1,6(2H,7H)-dione]: 0.026 µM, 2, 3.2 and 30.4 ×10⁻⁶ cm/s.
For the compound `Cn1c(Nc2ccc(SC(F)F)cc2F)c2c(cc1=O)CCN(OCCO)C2=O` [Example 25, 8-((4-((difluoromethyl)thio)-2-fluorophenyl)amino)-2-(2-hydroxyethoxy)-7-methyl-3,4-dihydro-2,7-naphthyridine-1,6(2H,7H)-dione], the IC50 in data set [1] is 0.003 µM. For the same compound, the efflux ratio at 2 h, 1 μM turned out to be 14.1 on BCRP (hBCRP) and 5.7 at P-gp (MDR1). Further, in data set [2], the Papp at 2 h, 1 μM was found to be 26.4 ×10⁻⁶ cm/s.
On the same counts, the results for `CC(C)ON1CCc2cc(=O)n(C)c(Nc3ccc(I)cc3F)c2C1=O` [Example 27, 8-((2-fluoro-4-iodophenyl)amino)-2-isopropoxy-7-methyl-3,4-dihydro-2,7-naphthyridine-1,6(2H,7H)-dione] are 0.142 µM, 1.4, 0.9 and 25.1 ×10⁻⁶ cm/s.
